Results from ChEMBL document CHEMBL5620374, “Synthesis and bioevaluation of novel stilbene-based derivatives as tubulin/HDAC dual-target inhibitors with potent antitumor activities in vitro and in vivo” (Eur J Med Chem, 2023).
Active and inactive are the calls of the source. The rule behind the calls is not given here.

What was measured:
HUVEC [1] = test: Inhibition of tube formation in HUVEC cells incubated for 24 hrs by inverted microscopy; format: functional, cell-based; settings: Homo sapiens
Histone deacetylase 3 = Histone deacetylase 3 (Homo sapiens, UniProt O15379); test: Inhibition of HDAC3 in human K562 cells assessed as increase in Acetyl-histone H3 level at 0.01 to 1 uM incubated for 24 hrs by Western blot analysis; format: cell-based; settings: dose 0.01-1 µM
Chain of Histone deacetylase 3 (O15379 whole entry): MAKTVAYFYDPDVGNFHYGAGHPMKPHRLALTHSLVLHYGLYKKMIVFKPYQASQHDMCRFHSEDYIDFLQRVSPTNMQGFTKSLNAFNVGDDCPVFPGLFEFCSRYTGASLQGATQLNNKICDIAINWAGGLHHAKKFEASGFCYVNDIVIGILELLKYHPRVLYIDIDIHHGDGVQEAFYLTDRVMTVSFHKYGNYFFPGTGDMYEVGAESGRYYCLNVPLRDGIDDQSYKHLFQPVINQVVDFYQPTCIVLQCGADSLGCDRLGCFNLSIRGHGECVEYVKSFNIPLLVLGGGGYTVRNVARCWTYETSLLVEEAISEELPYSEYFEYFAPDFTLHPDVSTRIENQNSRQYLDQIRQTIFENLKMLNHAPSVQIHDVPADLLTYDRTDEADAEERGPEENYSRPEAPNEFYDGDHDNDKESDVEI

K562 [2] = test: Antiproliferative activity against human K562 cells incubated for 72 hrs by MTT assay; format: functional, cell-based; settings: K562, 72 h
Histone deacetylase 2 [3] = target: T1, Histone deacetylase 2 (Homo sapiens, UniProt Q92769); test: Inhibition of HDAC2 derived from human HeLa cell extract using Ac-Leu-Gly-Lys (Ac)-AMC as substrate by fluorescence based assay
T1 sequence (Q92769 whole entry): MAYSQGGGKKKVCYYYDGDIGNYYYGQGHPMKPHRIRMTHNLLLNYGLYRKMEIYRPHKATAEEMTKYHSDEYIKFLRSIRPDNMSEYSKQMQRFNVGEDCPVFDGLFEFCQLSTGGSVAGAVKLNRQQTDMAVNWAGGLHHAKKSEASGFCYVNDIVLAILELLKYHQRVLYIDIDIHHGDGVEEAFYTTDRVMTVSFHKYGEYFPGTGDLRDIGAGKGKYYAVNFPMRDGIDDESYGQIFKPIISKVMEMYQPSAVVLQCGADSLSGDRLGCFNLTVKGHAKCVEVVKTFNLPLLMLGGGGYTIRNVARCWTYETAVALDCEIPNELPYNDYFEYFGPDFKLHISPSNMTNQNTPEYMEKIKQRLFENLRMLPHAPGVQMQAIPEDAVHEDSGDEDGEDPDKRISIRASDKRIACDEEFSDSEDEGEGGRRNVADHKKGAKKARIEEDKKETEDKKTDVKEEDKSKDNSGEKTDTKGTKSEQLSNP

K562 [4] = test: Induction of cell cycle arrest at G1 phase in human K562 cells at 2 nM incubated for 48 hrs by PI staining based flow cytometry (reference value: 62.08 +/- 0.40 %); format: functional
K562 [5] = test: Induction of cell cycle arrest at G1 phase in human K562 cells at 4 nM incubated for 48 hrs by PI staining based flow cytometry (reference value: 62.08 +/- 0.40 %); format: functional
K562 [6] = test: Induction of cell cycle arrest at G1 phase in human K562 cells at 8 nM incubated for 48 hrs by PI staining based flow cytometry (reference value: 62.08 +/- 0.40 %); format: functional
[7] = Toxicity in ICR mouse allografted with mouse H22 cells assessed as toxic sign in lung at 10 to 20 mg/kg, iv qd for 17 days consecutively by H and E staining based analysis; format: organism-based; settings: in vivo, dose 10-20 mg/kg, time 17 day
K562 [8] = test: Inhibition of mitochondrial membrane potential in human K562 cells assessed as green fluorescence intensity at 2 nM incubated for 48 hrs by JC-1 staining based flow cytometry (reference value: 6.63 +/- 0.27 %); format: functional
K562 [9] = test: Inhibition of mitochondrial membrane potential in human K562 cells assessed as red fluorescence intensity at 8 nM incubated for 48 hrs by JC-1 staining based flow cytometry (reference value: 93.36 +/- 0.21 %); format: functional
Histone deacetylase 2 [10] = target: T1, Histone deacetylase 2; test: Inhibition of HDAC2 in human K562 cells assessed as increase in Acetyl-histone H3 level at 0.01 to 1 uM incubated for 24 hrs by Western blot analysis; format: cell-based; settings: dose 0.01-1 µM
K562 [11] = test: Induction of apoptosis in human K562 cells assessed as nuclear fragmentation at 2 to 8 nM incubated for 48 hrs by Hoechst 33342 staining based analysis; format: functional, cell-based; settings: dose 2-8 nM
K562 [12] = test: Induction of apoptosis in human K562 cells assessed as increase in Bad level incubated for 24 hrs by Western blot analysis; format: functional, cell-based; settings: dose 2-8 nM
Tubulin (Homo sapiens) = Tubulin (Homo sapiens) (UniProt P68371+Q9H4B7+P0DPH7+P68366+Q13509+Q71U36+P04350+Q3ZCM7+P07437+P68363+Q9BQE3+Q6PEY2+Q13885+Q9BVA1+Q9BUF5); test: Inhibition of tubulin polymerization in human K562 cells assessed as disruption of microtubule network at 2 to 8 nM by immunofluorescence based analysis; format: cell-based; settings: dose 2-8 nM
HUVEC [13] = test: Inhibition of tube formation in HUVEC cells at 8 nM incubated for 6 hrs by inverted microscopy; format: functional, cell-based; settings: Homo sapiens
K562 [14] = test: Inhibition of mitochondrial membrane potential in human K562 cells assessed as red fluorescence intensity at 2 nM incubated for 48 hrs by JC-1 staining based flow cytometry (reference value: 93.36 +/- 0.21 %); format: functional
Histone deacetylase 7 = target: T2, Histone deacetylase 7 (Homo sapiens, UniProt Q8WUI4); test: Inhibition of HDAC7 derived from human HeLa cell extract using Ac-Leu-Gly-Lys (Ac)-AMC as substrate by fluorescence based assay; format: cell-free
T2 sequence (Q8WUI4 whole entry): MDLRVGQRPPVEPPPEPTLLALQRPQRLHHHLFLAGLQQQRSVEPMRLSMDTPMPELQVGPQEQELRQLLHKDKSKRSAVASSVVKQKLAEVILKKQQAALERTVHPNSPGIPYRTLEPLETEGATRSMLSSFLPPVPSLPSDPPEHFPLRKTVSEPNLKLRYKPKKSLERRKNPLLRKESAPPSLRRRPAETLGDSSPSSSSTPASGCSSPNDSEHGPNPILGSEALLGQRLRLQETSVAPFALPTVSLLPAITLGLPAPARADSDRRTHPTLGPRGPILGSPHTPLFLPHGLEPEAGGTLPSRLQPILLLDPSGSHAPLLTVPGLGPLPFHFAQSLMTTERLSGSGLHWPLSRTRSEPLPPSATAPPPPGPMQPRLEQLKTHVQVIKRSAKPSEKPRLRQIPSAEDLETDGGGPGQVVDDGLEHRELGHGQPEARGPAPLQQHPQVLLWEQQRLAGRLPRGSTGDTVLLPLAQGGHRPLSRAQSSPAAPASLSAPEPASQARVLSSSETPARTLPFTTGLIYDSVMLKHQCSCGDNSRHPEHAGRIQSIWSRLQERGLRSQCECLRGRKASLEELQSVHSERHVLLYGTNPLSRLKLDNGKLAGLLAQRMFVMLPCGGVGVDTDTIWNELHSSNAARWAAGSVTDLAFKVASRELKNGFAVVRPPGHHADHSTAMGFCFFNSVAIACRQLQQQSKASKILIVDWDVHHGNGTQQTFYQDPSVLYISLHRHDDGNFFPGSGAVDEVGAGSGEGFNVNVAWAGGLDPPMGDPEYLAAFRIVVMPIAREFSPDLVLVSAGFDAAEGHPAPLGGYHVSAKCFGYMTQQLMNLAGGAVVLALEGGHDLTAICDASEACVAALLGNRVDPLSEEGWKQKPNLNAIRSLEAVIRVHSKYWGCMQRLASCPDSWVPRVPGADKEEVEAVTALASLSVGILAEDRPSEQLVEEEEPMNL

K562 [15] = test: Induction of apoptosis in human K562 cells assessed as chromatin aggregation at 2 to 8 nM incubated for 48 hrs by Hoechst 33342 staining based analysis; format: functional, cell-based; settings: dose 2-8 nM
K562 [16] = test: Induction of ROS generation in human K562 cells assessed as DCF-positive cells at 2 nM incubated for 48 hrs by DCF-DA probe based flow cytometry (reference value: 3.87 %); format: functional
K562 [17] = test: Effect on cell cycle in human K562 cells assessed as decrease in cyclin B1 level incubated for 24 hrs by Western blot analysis; format: functional, cell-based; settings: dose 2-8 nM
[18] = Toxicity in ICR mouse allografted with mouse H22 cells assessed as toxic sign in liver at 10 to 20 mg/kg, iv qd for 17 days consecutively by H and E staining based analysis; format: organism-based; settings: in vivo, dose 10-20 mg/kg, time 17 day
H22 [19] = test: Antitumor activity against mouse H22 cells allografted in ICR mouse assessed as decrease in tumor microvessel density at 20 mg/kg, iv qd for 17 days consecutively by IHC analysis; format: functional, organism-based; settings: time 17.0 day
K562 [20] = test: Induction of cell cycle arrest at S phase in human K562 cells at 4 nM incubated for 48 hrs by PI staining based flow cytometry (reference value: 22.56 +/- 0.47 %); format: functional
H22 [21] = test: Antitumor activity against mouse H22 cells allografted in ICR mouse assessed as tumor growth inhibition at 20 mg/kg, iv qd for 17 days consecutively relative to control; format: functional; settings: time 17 day, read-out: TGI

C=C(c1ccc(OC)c(OC(F)C(=O)NO)c1)c1cc(C)nc2ccccc12 (centres undefined)
IC50 (HUVEC [1]): 0.192 µM | inhibition (Histone deacetylase 3): Active | IC50 (K562 [2]): 0.003 µM | IC50 (Histone deacetylase 2 [3]): 0.591 µM | Activity (K562 [4]): 56.87% | Activity (K562 [5]): 49.35% | Activity (K562 [6]): 41.72% | Activity [7]: Non-Toxic | Flu intensity (K562 [8]): 17.63% | Flu intensity (K562 [9]): 57.69% | inhibition (Histone deacetylase 2 [10]): Active | Activity (K562 [11]): Active | Activity (K562 [12]): Dose-Dependent Effect | inhibition (Tubulin (Homo sapiens)): Active | inhibition (HUVEC [13]): Active | Flu intensity (K562 [14]): 82.36% | IC50 (Histone deacetylase 7): > 10 µM | Activity (K562 [15]): Active | Activity (K562 [16]): 16.44% | Activity (K562 [17]): Dose-Dependent Effect | Activity [18]: Non-Toxic | Activity (H22 [19]): Active | Activity (K562 [20]): 26.6% | inhibition in vivo at 20 mg/kg (H22 [21]): 73.1%
